Molecules are shown by their SMILES.

Here are results for six compounds from PMC2696686 (Bioorganic & medicinal chemistry, 2009).

Series [1] deals with T1, rDAT (Rattus norvegicus, UniProt P23977). Particulars: pattern previously seen; ref [7]; cited from earlier work.
Series [2] is described as follows: Storage stability of the radioligand by HPLC. Format: physicochemical. Particulars: 25 days at −20 °C in the dark; initial purity 99%.
Series [3] has as its target T1, rDAT. Conditions: LLC-PK1 cells expressing rDAT.
In series [4] the target is T2, hDAT (Homo sapiens, UniProt Q01959). Put plainly: [3H]-dopamine uptake inhibition in N2A neuroblastoma cells expressing hDAT. The class given is cell-based. Particulars: uptake IC50 higher than binding Ki.
Series [5] deals with T2, hDAT. Put plainly: [3H]-WIN-35,428 binding inhibition in N2A neuroblastoma cells expressing hDAT.
Another series concerns the target 6Xhis-hDAT (Homo sapiens, UniProt Q01959). Particulars: 100 μM (−)-cocaine; HEK 293 cells expressing 6Xhis-hDAT.

T2 sequence (Q01959 whole entry): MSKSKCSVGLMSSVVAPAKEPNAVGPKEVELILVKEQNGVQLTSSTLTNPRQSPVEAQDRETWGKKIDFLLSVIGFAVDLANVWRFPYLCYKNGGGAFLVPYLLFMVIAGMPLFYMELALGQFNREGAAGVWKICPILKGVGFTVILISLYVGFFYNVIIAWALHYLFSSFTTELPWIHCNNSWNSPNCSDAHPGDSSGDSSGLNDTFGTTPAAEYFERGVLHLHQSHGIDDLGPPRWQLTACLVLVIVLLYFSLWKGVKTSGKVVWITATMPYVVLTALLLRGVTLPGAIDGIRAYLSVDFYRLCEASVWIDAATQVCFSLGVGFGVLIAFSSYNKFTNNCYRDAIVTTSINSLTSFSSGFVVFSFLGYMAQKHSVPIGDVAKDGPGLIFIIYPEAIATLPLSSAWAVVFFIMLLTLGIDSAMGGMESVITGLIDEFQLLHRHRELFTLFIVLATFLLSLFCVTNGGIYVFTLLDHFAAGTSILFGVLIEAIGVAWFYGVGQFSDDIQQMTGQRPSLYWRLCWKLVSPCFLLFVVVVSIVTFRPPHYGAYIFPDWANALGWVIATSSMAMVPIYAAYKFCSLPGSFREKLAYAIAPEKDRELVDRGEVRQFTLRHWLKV
T1 sequence (P23977 whole entry): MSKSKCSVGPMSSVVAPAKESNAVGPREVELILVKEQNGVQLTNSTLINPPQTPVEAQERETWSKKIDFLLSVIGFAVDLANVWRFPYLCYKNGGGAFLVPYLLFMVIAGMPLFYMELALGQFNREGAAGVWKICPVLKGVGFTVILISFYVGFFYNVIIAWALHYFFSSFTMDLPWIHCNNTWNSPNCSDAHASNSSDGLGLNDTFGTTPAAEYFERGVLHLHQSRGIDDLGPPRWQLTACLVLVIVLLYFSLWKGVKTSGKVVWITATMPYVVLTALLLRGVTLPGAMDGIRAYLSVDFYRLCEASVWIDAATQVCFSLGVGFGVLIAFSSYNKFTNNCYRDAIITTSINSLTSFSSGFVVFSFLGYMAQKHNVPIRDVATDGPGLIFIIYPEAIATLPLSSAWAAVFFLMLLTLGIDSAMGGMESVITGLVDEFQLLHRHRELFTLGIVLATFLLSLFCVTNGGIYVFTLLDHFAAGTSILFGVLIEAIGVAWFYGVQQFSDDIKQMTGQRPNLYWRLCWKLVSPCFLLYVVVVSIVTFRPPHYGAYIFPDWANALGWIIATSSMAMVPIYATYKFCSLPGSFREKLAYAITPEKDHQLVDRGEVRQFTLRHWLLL
Chain of 6Xhis-hDAT (Q01959 whole entry): as the sequence (Q01959 whole entry) above

For the compound `CN1[C@@H]2CC[C@H]1C[C@@H](OC(c1ccccc1)c1ccccc1)C2` [benztropine], the “Binding versus uptake inhibition value (pattern)” value on rDAT [1] is “essentially the same value”. For the compound `CCCC(C(=O)c1ccc(N=[N+]=[N-])c([125I])c1)N1CCCC1` (stereo not drawn) [[^125I]-6, [^125I]-1-(4-Azido-3-iodophenyl)-2-pyrrolidin-1-yl-pentan-1-one], the “Radiochemical purity after storage (stability)” value in series [2] was determined as 92%. Also, on rDAT [3] (30 nM radioligand, 1 h, 4°C, UV 254 nm, 45 s), the “Incorporation into DAT on photoactivation (labeled protein of ~80 kDa)” value was “incorporation”. For `CCCC(C(=O)c1ccc(N)cc1)N1CCCC1` (stereo not drawn) [Compound 8, 1-(4-Aminophenyl)-2-pyrrolidin-1-yl-pentan-1-one], on hDAT [4], the “Uptake inhibition IC50 relative to binding Ki” value is given as “essentially the same value”.

With `CCCC(C(=O)c1ccc(N=[N+]=[N-])c(I)c1)N1CCCC1` (stereo not drawn) [Compound 6, 1-(4-Azido-3-iodophenyl)-2-pyrrolidin-1-yl-pentan-1-one], at hDAT [5] (ratio of Ki values versus bupropion), the “DAT affinity, fold higher than bupropion” value is on record as 6 fold. For the same compound, the “DAT affinity, fold less than pyrovalerone” value on hDAT [5] (ratio of Ki values versus pyrovalerone) is 10 fold.

Turning to `COC(=O)[C@H]1[C@@H](OC(=O)c2ccccc2)C[C@@H]2CC[C@H]1N2C` [cocaine, reference compound], the “Effect on [125I]-6 photolabeling of DAT” value on rDAT [3] (100 μM (−)-cocaine) and at 6Xhis-hDAT was “blocked” each time. Consider `C[C@@H]1CN(CCCn2c3ccccc3c3ccccc32)C[C@H](C)N1` [rimcazole], for which, on rDAT [1], the “Binding versus uptake inhibition value (pattern)” value is reported as “essentially the same value”.
